These results are taken from PMC12656849 (Viruses, 2025).

Where a name gives a salt, the structure may show the parent alone.

Data set [1] addresses T1, MPXV H1 (Monkeypox virus, UniProt A0A7H0DN78). As to the kind of experiment: biochemical.
Data set [2] relates to HeLa cells.
Data set [3] concerns VARV H1. To be noted: cited from earlier work.
Data set [4] deals with MPXV. To be noted: cited from earlier work.
The target of data set [5] is T1, MPXV H1. Type of data set: biochemical. To be noted: read-out: Michaelis constant (Km); pH 6.5.
Data set [6] has as its system mpox. To be noted: in vivo; cited from earlier work.

T1 sequence (A0A7H0DN78 whole entry, looked up): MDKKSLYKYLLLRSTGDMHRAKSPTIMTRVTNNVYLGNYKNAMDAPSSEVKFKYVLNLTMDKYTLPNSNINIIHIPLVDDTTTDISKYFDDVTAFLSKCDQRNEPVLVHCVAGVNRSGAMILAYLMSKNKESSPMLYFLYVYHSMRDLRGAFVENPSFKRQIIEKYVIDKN

`CC(C)(C)C(=O)Nc1ccc2c(c1)C(=O)C(=O)c1ccccc1-2` [Compound 35, SF1670] came in with an IC50 in data set [1] of 154 ± 12 nM.
For the compound `N#CSc1cc(SC#N)c(N)nc1N` [Compound 41, PR619], the IC50 in data set [1] turned out to be 176 ± 7 nM. Further, the “cytotoxicity (in words)” value in data set [2] is “particularly low cytotoxicity”.
For `CC1(C)CCC2=C(O1)c1ccccc1C(=O)C2=O` [Compound 45, Beta-lapachone], in that order: 348 ± 17 nM and “particularly low cytotoxicity”.
`O=C1C=C(Cl)C(=O)c2ccccc21` [Compound 47, 2-Chloro-1,4-naphthoquinone] had an IC50 in data set [1] of 837 ± 56 nM. Moreover, in data set [2], the “cytotoxicity (in words)” value is on record as “particularly low cytotoxicity”.
On the same counts, the results for `Cl.Oc1cccc(O)n1` [Compound 57, 2,6-Dihydroxypyridine hydrochloride] are 911 ± 64 nM and “particularly low cytotoxicity”.
On to `O=C1C(=O)c2ncccc2-c2cccnc21` [Compound 59, Phanquinone], for which the IC50 in data set [1] was 241 ± 7 nM.
`CN(C)CCNc1nc2cc(O)ccc2c2c1C(=O)c1ccccc1-2` [Compound 68, TAS-103 (dihydrochloride)] had an IC50 in data set [1] of 865 ± 16 nM. For the same compound, the “cytotoxicity (in words)” value in data set [2] was “substantial cytotoxicity”.
On the same counts, the results for `CC(=O)c1cc2c(o1)C(=O)c1ccccc1C2=O` [Compound 75, Napabucasin] are 957 ± 40 nM and “substantial cytotoxicity”.
On the same counts, the results for `CC(C)NC1=CC=CNC1N1CCN(C(=O)c2cc3cc(NS(C)(=O)=O)ccc3[nH]2)CC1` (stereo not shown) [Compound 88, Delavirdine (mesylate)] are 987 ± 48 nM and “particularly low cytotoxicity”.
In data set [1], `Cn1cccc1/C=C1\C(=O)NC(=O)c2ccccc21` [Compound 89, BYK204165] registered an IC50 of 794 ± 46 nM. Besides, the “cytotoxicity (in words)” value in data set [2] is “particularly low cytotoxicity”.
The compound `Cc1coc2c1C(=O)C(=O)c1c-2ccc2c1CCCC2(C)C` [Compound 106, Tanshinone IIA] came in with an IC50 in data set [1] of 531 ± 19 nM.
Take `COCCn1c2c([n+](Cc3cnccn3)c1C)C(=O)c1ccccc1C2=O` [Compound 108, YM155]: in data set [1], the IC50 is 826 ± 65 nM. The “cytotoxicity (in words)” value in data set [2] is listed as “substantial cytotoxicity”.
In the case of `CC1=CC(=O)c2c(O)cccc2C1=O` [Compound 109, Plumbagin], in data set [1], the IC50 was found to be 874 ± 24 nM. Moreover, in data set [2], the “cytotoxicity (in words)” value was “particularly low cytotoxicity”.
For the compound `Cc1c(S(=O)(=O)O)oc2c1C(=O)C(=O)c1c-2ccc2c1CCCC2(C)C` [Compound 111, Tanshinone IIA sulfonate sodium], the IC50 in data set [1] was determined as 287 ± 10 nM.
As for `COc1cc2c3c(c1OC)-c1ccccc1C[C@H]3N(C)CC2` [Compound 112, Nuciferine], in data set [1], the IC50 turned out to be 752 ± 9 nM.
For the compound `Nc1cc(N)c(N)cc1N` [Compound 118, 1,2,4,5-Benzenetetramine tetrahydrochloride], the IC50 in data set [1] came to 333 ± 30 nM.
On the same count and under the same terms, with `COc1ccc2c(c1OC)CC1c3c(cc4c(c3-2)OCO4)CCN1C` (stereo not shown) [Compound 122, Crebanine] the figure was 229 ± 21 nM.
In data set [1], `COc1cc2c3c(cc4ccccc4c3c1OC)N(C)CC2` [Compound 123, Dehydronuciferine] showed an IC50 of 356 ± 25 nM. Also, the “cytotoxicity (in words)” value in data set [2] was “particularly low cytotoxicity”.
The compound `CC(C)(c1ccc(NS(=O)(=O)C(F)(F)F)cc1)c1ccc(C(C)(C)c2ccc(NS(=O)(=O)C(F)(F)F)cc2)cc1` [PTP inhibitor IV] registered an IC50 in data set [1] of 18900 nM. Besides, in data set [3], the “potency of VARV H1 inhibition” value was “low-micromolar potency”.
As to `OC(c1cc(C(F)(F)F)nc2c(C(F)(F)F)cccc12)C1CCCCN1` (stereo not shown) [mefloquine], the “inhibition of MPXV” value in data set [4] is “inhibit MPXV”.
In the case of `O=[N+]([O-])c1ccc(OP(=O)(O)O)cc1` [pNPP, p-nitrophenyl phosphate], the Km in data set [5] came out at 1500 µM.
Take `O=C(NN1C(=O)[C@@H]2[C@@H]3C=C[C@@H]([C@H]4C[C@@H]34)[C@@H]2C1=O)c1ccc(C(F)(F)F)cc1` [tecovirimat]: the “mpox symptom duration compared with placebo” value in data set [6] is recorded as “did not shorten”.

By IC50 is commonly meant the concentration at which inhibition is half-maximal. Low values mean greater potency in that assay, high ones weaker potency in that assay. The Km is the concentration of substrate that gives half-maximal velocity.
